This note sets out measurements from publication PMC8277899, “A novel RyR1-selective inhibitor prevents and rescues sudden death in mouse models of malignant hyperthermia and heat stroke” (Nature Communications, 2021).

This assay deals with soleus muscles from R2509C mice. As to the kind of experiment: Muscle force in vitro, soleus from R2509C mice (caffeine and heat contracture, twitch, tetanus). In kind it is cell-based, mouse. Conditions: for inhibition at 3 µM: Mus musculus, soleus (WT and R2509C groups).

Values joined by “and” are separate entries in the source; they are usually repeats but may differ in a detail not shown here. Equal entries are not always repeated. Where two headings read alike, the source gives them in different places.

A word on the inhibition: it is how much of the control response was suppressed. As for `CCCCCCCCn1cc(C(=O)O)c(=O)c2cc3c(cc21)OCO3` [Cpd1, 6,7-(methylenedioxy)-1-octyl-4-quinolone-3-carboxylic acid], the inhibition at 3 µM reads like this: (at 100 Hz, read-out: inhibition of tetanic contraction force) 35%; (read-out: inhibition of twitch contraction force) 72%. Where the note is “R2509C soleus, 3 μM Cpd1, caffeine 20 mM”, the “increase in basal stress in response to caffeine” value was 0.5836 and 0.5932 and 0.4496 and 0.3389 and 0.4718. For the same compound, the “effect on caffeine-induced contracture tension” value (R2509C soleus, pretreatment 3 µM, 20 mM caffeine) is listed as “decreased”. Also, the “effect on heat-induced contracture” value (R2509C soleus, pretreatment 3 µM, 42 °C) is reported as “significantly reduced”.
